According to ChEMBL document CHEMBL4673401 (ACS Med Chem Lett, 2021):

Columns and labels:
[1] = molecular target: T1, Indoleamine 2,3-dioxygenase 1 (Homo sapiens, UniProt P14902); experiment: Inhibition of IDO1 in IFNgamma-stimulated human HeLa cells using L-tryptophan as substrate measured after 48 hrs
[2] = molecular target: T1, Indoleamine 2,3-dioxygenase 1; experiment: Inhibition of human IDO1 expressed in Escherichia coli Rosetta using tryptophan as substrate incubated for 1 hr by methylene blue based assay
[3] = molecular target: Tryptophan 2,3-dioxygenase (Homo sapiens, UniProt P48775); experiment: Inhibition of human TDO expressed in Escherichia coli Rosetta using tryptophan as substrate incubated for 1 hr by methylene blue based assay
Sequence of Tryptophan 2,3-dioxygenase (P48775 whole entry): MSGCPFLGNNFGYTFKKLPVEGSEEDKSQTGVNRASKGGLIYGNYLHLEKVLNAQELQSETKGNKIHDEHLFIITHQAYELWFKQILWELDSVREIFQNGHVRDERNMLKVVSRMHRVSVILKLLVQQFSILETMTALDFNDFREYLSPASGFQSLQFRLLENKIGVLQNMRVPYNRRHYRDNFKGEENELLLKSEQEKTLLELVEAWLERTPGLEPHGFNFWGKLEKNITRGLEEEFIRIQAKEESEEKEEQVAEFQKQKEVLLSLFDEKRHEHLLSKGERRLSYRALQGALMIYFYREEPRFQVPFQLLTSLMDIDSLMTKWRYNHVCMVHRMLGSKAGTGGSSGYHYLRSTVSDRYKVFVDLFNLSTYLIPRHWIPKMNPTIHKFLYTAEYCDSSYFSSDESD

[4] = AUC in Beagle dog at 2 mg/kg, po measured up to 24 hrs; assay type: ADME, organism-based, Canis lupus familiaris; parameters: route oral, dose 2 mg/kg, time <=24; settings: in vivo
[5] = Cmax in Sprague-Dawley rat at 3 mg/kg, po measured up to 24 hrs; assay type: ADME, organism-based; parameters: route oral, dose 3 mg/kg, time <=24; settings: in vivo
[6] = Half life in Sprague-Dawley rat at 3 mg/kg, po measured up to 24 hrs; assay type: ADME, organism-based; settings: in vivo
[7] = AUC in Sprague-Dawley rat at 3 mg/kg, po measured up to 24 hrs; assay type: ADME, organism-based; parameters: route oral, dose 3 mg/kg, time <=24; settings: in vivo
[8] = Cmax in Beagle dog at 2 mg/kg, po measured up to 24 hrs; assay type: ADME, organism-based, Canis lupus familiaris; parameters: route oral, dose 2 mg/kg, time <=24; settings: in vivo
[9] = Half life in Beagle dog at 2 mg/kg, po measured up to 24 hrs; assay type: ADME, organism-based, Canis lupus familiaris; settings: in vivo
[10] = Protein binding in dog plasma by rapid equilibrium dialysis method; assay type: ADME, cell-free, Canis lupus familiaris; settings: read-out: PPB (converted)
Cytochrome P450 2C19 = Cytochrome P450 2C19 (Homo sapiens, UniProt P33261); experiment: Inhibition of CYP2C19 in human liver microsomes using S-mephenytoin as substrate incubated for 10 mins in presence of NADPH by UHPLC-MS/MS analysis; assay type: ADME; settings: read-out: INH
Sequence of Cytochrome P450 2C19 (P33261 whole entry): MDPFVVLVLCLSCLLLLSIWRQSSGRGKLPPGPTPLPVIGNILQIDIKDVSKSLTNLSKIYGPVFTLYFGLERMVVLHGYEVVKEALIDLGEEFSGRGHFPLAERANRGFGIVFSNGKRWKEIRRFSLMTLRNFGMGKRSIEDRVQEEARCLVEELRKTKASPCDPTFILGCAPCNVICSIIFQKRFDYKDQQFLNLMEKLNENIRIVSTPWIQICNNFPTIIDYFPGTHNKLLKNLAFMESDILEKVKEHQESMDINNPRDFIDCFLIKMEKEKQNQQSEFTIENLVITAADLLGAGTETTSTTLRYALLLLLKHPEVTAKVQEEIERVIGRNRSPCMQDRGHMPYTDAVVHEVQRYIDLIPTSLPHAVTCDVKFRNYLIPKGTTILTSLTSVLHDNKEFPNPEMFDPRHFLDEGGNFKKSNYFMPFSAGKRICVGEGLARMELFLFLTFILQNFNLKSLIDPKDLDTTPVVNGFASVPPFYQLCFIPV

MC-38 [11] = experiment: Antitumor activity against mouse MC38 cells xenograted in humanized PD-1 mouse assessed as tumor growth inhibition at 300 mg/kg, po bid for 14 days in combination with PD-1 antibody at 3 mg/kg, ip qod for 8 days by digital caliper method relative to control; assay type: functional; settings: MC-38, 336 h, time 14 day, read-out: TGI
[12] = Clearance in Sprague-Dawley rat at 3 mg/kg, po measured up to 24 hrs; assay type: ADME, organism-based; settings: in vivo
[13] = Oral bioavailability in C57BL/6 mouse at 3 mg/kg measured up to 24 hrs; assay type: ADME, organism-based; settings: in vivo
[14] = Half life in C57BL/6 mouse at 3 mg/kg, po measured up to 24 hrs; assay type: ADME, organism-based; settings: in vivo
[15] = AUC in C57BL/6 mouse at 3 mg/kg, po measured up to 24 hrs; assay type: ADME, organism-based; parameters: route oral, dose 3 mg/kg, time <=24; settings: in vivo
MC-38 [16] = experiment: Antitumor activity against mouse MC38 cells xenograted in humanized PD-1 mouse assessed as tumor growth inhibition at 600 mg/kg, po bid for 14 days in combination with PD-1 antibody at 3 mg/kg, ip qod for 8 days by digital caliper method relative to control; assay type: functional; settings: MC-38, 336 h, time 14 day, read-out: TGI
Cytochrome P450 3A4 = Cytochrome P450 3A4 (Homo sapiens, UniProt P08684); experiment: Inhibition of CYP3A4 in human liver microsomes using midazolam as substrate incubated for 10 mins in presence of NADPH by UHPLC-MS/MS analysis; assay type: ADME
Sequence of Cytochrome P450 3A4 (P08684 whole entry): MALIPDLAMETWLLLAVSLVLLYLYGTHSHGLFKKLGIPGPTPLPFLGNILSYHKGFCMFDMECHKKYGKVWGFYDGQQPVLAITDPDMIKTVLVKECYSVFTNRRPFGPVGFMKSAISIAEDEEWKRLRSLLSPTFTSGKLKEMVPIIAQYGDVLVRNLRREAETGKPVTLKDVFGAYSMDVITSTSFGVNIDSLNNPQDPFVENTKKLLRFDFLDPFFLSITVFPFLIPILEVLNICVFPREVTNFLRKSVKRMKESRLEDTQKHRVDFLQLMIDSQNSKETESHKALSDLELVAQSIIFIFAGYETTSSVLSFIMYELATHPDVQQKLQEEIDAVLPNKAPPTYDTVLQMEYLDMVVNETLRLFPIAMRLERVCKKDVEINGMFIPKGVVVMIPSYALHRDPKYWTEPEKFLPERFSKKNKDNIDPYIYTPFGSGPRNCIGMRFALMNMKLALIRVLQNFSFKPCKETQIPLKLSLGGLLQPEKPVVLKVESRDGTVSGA

MC-38 [17] = experiment: Antitumor activity against mouse MC38 cells xenograted in po dosed humanized PD-1 mouse assessed as tumor growth inhibition administered twice for 14 days in combination with PD-1 antibody at 3 mg/kg, ip qod for 8 days by digital caliper method; assay type: functional, organism-based; settings: time 14.0 day
[18] = Clearance in Beagle dog at 2 mg/kg, po measured up to 24 hrs; assay type: ADME, organism-based, Canis lupus familiaris; settings: in vivo
[19] = Toxicity in humanized PD-1 mouse xenografted with mouse MC38 cells assessed as effect on body weight at 150 to 600 mg/kg, po bid for 14 days in combination with PD-1 antibody at 3 mg/kg, ip qod for 8 days; assay type: organism-based; settings: in vivo, 336 h, dose 150-600 mg/kg, time 14 day
[20] = Cmax in C57BL/6 mouse at 3 mg/kg, po measured up to 24 hrs; assay type: ADME, organism-based; parameters: route oral, dose 3 mg/kg, time <=24; settings: in vivo
[21] = Oral bioavailability in Sprague-Dawley rat at 3 mg/kg measured up to 24 hrs; assay type: ADME, organism-based; settings: in vivo
[22] = Oral bioavailability in Beagle dog at 2 mg/kg measured up to 24 hrs; assay type: ADME, organism-based, Canis lupus familiaris; settings: in vivo
Cytochrome P450 1A2 = molecular target: T2, Cytochrome P450 1A2 (Homo sapiens, UniProt P05177); experiment: Inhibition of CYP1A2 in human liver microsomes using phenacetin as substrate incubated for 10 mins in presence of NADPH by UHPLC-MS/MS analysis; assay type: ADME
T2 sequence (P05177 whole entry): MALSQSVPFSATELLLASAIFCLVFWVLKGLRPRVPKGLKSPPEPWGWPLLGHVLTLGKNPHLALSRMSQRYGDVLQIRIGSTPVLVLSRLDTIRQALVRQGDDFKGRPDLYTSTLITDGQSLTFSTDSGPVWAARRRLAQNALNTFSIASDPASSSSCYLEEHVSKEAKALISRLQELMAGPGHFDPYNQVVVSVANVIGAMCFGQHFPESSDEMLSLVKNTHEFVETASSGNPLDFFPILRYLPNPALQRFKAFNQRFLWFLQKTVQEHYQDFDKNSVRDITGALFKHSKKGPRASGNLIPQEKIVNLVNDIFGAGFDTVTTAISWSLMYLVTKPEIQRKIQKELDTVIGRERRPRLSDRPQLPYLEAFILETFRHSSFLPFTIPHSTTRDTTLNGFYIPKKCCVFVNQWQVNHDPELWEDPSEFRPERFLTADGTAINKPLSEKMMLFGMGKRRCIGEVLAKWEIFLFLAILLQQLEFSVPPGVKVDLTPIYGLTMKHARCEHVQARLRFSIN

MC-38 [23] = experiment: Antitumor activity against mouse MC38 cells xenograted in humanized PD-1 mouse assessed as tumor growth inhibition at 150 mg/kg, po bid for 14 days in combination with PD-1 antibody at 3 mg/kg, ip qod for 8 days by digital caliper method relative to control; assay type: functional; settings: MC-38, 336 h, time 14 day, read-out: TGI
Cytochrome P450 2D6 = Cytochrome P450 2D6 (Homo sapiens, UniProt P10635); experiment: Inhibition of CYP2D6 in human liver microsomes using dextromethorphan as substrate incubated for 10 mins in presence of NADPH by UHPLC-MS/MS analysis; assay type: ADME
Sequence of Cytochrome P450 2D6 (P10635 whole entry): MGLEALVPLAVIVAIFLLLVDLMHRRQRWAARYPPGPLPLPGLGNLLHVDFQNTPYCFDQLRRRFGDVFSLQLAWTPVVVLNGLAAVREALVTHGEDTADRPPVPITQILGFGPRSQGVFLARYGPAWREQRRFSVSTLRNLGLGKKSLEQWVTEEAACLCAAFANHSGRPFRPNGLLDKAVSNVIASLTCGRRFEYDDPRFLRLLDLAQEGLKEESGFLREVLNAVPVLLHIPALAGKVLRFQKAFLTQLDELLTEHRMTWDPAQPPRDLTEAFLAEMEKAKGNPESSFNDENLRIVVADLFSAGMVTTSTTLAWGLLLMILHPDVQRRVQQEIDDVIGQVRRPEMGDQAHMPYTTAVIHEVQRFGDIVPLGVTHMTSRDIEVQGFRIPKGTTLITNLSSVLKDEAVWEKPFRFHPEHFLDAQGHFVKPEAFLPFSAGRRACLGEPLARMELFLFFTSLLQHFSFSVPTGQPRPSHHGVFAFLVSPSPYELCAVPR

[24] = molecular target: Indoleamine 2,3-dioxygenase 1 (Mus musculus) (UniProt P28776); experiment: In vivo inhibition of IDO1 in C57BL/6 mouse assessed as reduction in kynurenine level in plasma at 300 mg/kg, po administered as single dose measured after 2 hrs relative to control; assay type: functional, organism-based
Sequence of Indoleamine 2,3-dioxygenase 1 (Mus musculus) (P28776 whole entry, looked up): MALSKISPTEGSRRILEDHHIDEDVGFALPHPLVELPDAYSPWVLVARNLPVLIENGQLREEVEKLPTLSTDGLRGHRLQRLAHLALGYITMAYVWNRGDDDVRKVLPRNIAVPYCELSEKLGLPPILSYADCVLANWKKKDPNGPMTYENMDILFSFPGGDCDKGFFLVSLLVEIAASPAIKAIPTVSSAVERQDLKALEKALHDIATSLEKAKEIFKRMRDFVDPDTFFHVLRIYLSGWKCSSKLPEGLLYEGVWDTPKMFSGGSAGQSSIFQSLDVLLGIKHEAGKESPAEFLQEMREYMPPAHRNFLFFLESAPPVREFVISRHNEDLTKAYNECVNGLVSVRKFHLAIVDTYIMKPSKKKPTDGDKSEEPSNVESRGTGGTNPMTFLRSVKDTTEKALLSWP

[25] = molecular target: Voltage-gated inwardly rectifying potassium channel KCNH2 (Homo sapiens, UniProt Q12809); experiment: Inhibition of human ERG expressed in CHO-K1 cells at -90 mV holding potential by automated patch-clamp method; assay type: cell-based
Sequence of Voltage-gated inwardly rectifying potassium channel KCNH2 (Q12809 whole entry): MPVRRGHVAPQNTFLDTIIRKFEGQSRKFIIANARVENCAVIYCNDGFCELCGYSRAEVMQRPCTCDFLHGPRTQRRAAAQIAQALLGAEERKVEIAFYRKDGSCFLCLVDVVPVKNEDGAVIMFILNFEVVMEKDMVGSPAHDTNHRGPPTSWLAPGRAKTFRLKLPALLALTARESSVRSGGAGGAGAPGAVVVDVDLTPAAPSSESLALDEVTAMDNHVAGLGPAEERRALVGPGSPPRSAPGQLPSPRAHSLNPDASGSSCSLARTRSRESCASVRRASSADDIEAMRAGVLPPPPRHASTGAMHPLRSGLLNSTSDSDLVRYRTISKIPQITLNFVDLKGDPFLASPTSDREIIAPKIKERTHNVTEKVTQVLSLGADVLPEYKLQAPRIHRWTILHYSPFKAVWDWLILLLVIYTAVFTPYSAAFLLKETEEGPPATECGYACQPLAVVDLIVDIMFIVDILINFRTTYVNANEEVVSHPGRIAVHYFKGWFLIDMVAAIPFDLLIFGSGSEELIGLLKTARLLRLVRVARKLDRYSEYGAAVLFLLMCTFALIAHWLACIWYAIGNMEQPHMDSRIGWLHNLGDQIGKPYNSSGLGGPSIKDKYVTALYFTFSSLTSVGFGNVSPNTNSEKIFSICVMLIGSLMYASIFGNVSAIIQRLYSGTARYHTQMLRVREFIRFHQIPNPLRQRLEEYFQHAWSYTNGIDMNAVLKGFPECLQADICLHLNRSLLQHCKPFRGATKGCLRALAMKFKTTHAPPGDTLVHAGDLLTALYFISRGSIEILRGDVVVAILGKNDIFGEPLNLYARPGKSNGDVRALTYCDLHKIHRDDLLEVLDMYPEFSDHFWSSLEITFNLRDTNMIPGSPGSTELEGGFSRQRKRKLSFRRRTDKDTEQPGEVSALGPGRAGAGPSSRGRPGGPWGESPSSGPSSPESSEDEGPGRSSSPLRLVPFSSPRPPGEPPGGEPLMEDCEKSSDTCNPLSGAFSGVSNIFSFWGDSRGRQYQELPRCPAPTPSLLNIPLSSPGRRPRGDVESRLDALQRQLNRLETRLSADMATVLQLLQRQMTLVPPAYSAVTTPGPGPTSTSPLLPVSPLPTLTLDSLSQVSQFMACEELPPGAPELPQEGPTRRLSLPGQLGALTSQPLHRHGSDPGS

[26] = Clearance in C57BL/6 mouse at 3 mg/kg, po measured up to 24 hrs; assay type: ADME, organism-based; settings: in vivo
[27] = Half life in human liver microsomes; assay type: ADME, Microsome
[28] = Half life in rat liver microsomes; assay type: ADME, Microsome
[29] = Protein binding in rat plasma by rapid equilibrium dialysis method; assay type: ADME, cell-free; settings: read-out: PPB (converted)
Cytochrome P450 2C9 = Cytochrome P450 2C9 (Homo sapiens, UniProt P11712); experiment: Inhibition of CYP2C9 in human liver microsomes using tolbutamide as substrate incubated for 10 mins in presence of NADPH by UHPLC-MS/MS analysis; assay type: ADME
Sequence of Cytochrome P450 2C9 (P11712 whole entry): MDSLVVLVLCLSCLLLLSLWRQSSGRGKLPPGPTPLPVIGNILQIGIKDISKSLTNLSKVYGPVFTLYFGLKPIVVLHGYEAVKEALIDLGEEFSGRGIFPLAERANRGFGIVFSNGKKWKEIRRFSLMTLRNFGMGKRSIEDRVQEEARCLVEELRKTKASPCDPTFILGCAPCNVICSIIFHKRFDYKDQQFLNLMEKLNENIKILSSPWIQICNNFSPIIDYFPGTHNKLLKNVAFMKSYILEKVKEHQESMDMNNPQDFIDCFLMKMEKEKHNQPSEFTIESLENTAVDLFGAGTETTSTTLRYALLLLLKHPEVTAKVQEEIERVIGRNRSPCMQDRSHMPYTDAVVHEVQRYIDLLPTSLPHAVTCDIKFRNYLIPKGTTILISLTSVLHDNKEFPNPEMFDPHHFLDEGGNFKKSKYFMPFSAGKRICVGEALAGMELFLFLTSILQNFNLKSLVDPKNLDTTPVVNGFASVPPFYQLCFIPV

[30] = Protein binding in human plasma by rapid equilibrium dialysis method; assay type: ADME, cell-free; settings: read-out: PPB (converted)

T1 sequence (P14902 whole entry): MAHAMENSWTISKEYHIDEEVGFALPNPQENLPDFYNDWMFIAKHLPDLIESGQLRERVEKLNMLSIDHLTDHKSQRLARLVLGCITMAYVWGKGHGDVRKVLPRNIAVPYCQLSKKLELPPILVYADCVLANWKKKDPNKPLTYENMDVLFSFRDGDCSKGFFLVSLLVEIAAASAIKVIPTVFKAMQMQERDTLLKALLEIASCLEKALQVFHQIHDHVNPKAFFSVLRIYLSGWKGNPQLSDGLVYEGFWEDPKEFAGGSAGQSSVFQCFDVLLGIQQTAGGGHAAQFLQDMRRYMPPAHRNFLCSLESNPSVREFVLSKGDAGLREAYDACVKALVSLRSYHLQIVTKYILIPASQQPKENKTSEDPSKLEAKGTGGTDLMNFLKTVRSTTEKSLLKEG

## O=C(/C(=N/O)Nc1ccc(F)c(Br)c1)c1cncs1
[1]
  IC50: 1770 nM
[2]
  IC50: 51 nM
[3]
  IC50: 11800 nM

## O=C(/C(=N/O)Nc1ccc(F)c(Br)c1)C1CCN(C(=O)NCc2ccccc2)CC1
[1]
  IC50: 28 nM
[2]
  IC50: 43 nM
[3]
  IC50: 89800 nM

## O=C(/C(=N/O)Nc1ccc(F)c(Br)c1)c1cccs1
[1]
  IC50: 272 nM
[2]
  IC50: 117 nM
[3]
  IC50: 63100 nM

## Cn1cc(-c2ccc(NC(=O)N3CCC(C(=O)/C(=N/O)Nc4ccc(F)c(Br)c4)CC3)cc2)cn1
[1]
  IC50: 15 nM
[4]
  AUC at 24 h: 255 ng·h/mL
[2]
  IC50: 14 nM
[5]
  Cmax: 173 ng/mL
[6]
  half-life: 5.08 h
[7]
  AUC at 24 h: 1030 ng·h/mL
[3]
  IC50: > 100000 nM
[8]
  Cmax: 140 ng/mL
[9]
  half-life: 1.1 h

## NS(=O)(=O)N1CCC(C(=O)/C(=N/O)Nc2ccc(F)c(Br)c2)CC1
[1]
  IC50: 45 nM
[10]
  fraction unbound: 0.04
[4]
  AUC at 24 h: 3630 ng·h/mL
Cytochrome P450 2C19
  IC50: > 10000 nM
MC-38 [11]
  inhibition in vivo at 300 mg/kg: 71.7%
[12]
  clearance: 16.7 mL/min/kg
[13]
  bioavailability: 44%
[14]
  half-life: 1.21 h
[2]
  IC50: 63 nM
[15]
  AUC at 24 h: 358 ng·h/mL
MC-38 [16]
  inhibition in vivo at 600 mg/kg: 86.8%
Cytochrome P450 3A4
  INH: > 10 µM
[5]
  Cmax: 179 ng/mL
MC-38 [17]
  TGI: Dose-dependent effect
[6]
  half-life: 6.14 h
[18]
  clearance: 9.3 mL/min/kg
[19]
  Activity: Non-Toxic
[20]
  Cmax: 127 ng/mL
[21]
  bioavailability: 58.8%
[22]
  bioavailability: 102%
Cytochrome P450 1A2
  INH: > 10 µM
MC-38 [23]
  inhibition in vivo at 150 mg/kg: 60.3%
Cytochrome P450 2D6
  INH: > 10 µM
[24]
  inhibition: 87.8%
[7]
  AUC at 24 h: 1530 ng·h/mL
[25]
  INH: > 30 µM
[3]
  IC50: 62500 nM
[8]
  Cmax: 742 ng/mL
[26]
  clearance: 61.2 mL/min/kg
[27]
  half-life: 5.81 h
[9]
  half-life: 3.04 h
[28]
  half-life: 1.56 h
[29]
  fraction unbound: 0.076
Cytochrome P450 2C9
  INH: > 10 µM
[30]
  fraction unbound: 0.036

## O=C(/C(=N/O)Nc1ccc(F)c(Br)c1)C1CCN(S(=O)(=O)NCc2ccccc2)CC1
[1]
  IC50: 262 nM
[2]
  IC50: 24 nM
[3]
  IC50: > 100000 nM

## O=C(/C(=N/O)Nc1ccc(F)c(Br)c1)C1CCN(C(=O)c2ccccc2)CC1
[1]
  IC50: 281 nM
[2]
  IC50: 106 nM
[3]
  IC50: > 100000 nM

## O=C(/C(=N/O)Nc1ccc(F)c(Br)c1)C1CCCCC1
[1]
  IC50: 63 nM
[2]
  IC50: 132 nM
[3]
  IC50: 79300 nM

## O=C(NC[C@H]1CC[C@H](C(=O)/C(=N/O)Nc2ccc(F)c(Br)c2)CC1)c1ccccc1
[1]
  IC50: 204 nM
[2]
  IC50: 80 nM
[3]
  IC50: 81000 nM

## O=C(/C(=N/O)Nc1ccc(F)c(Br)c1)c1ccccc1
[1]
  IC50: 1430 nM
[2]
  IC50: 410 nM
[3]
  IC50: 80000 nM

## NS(=O)(=O)NC[C@H]1CC[C@H](C(=O)/C(=N/O)Nc2ccc(F)c(Br)c2)CC1
[1]
  IC50: 21 nM
[2]
  IC50: 198 nM
[3]
  IC50: 58700 nM

## O=C(/C(=N/O)Nc1ccc(F)c(Br)c1)C1CCN(C(=O)Nc2ccccc2)CC1
[1]
  IC50: 54 nM
[2]
  IC50: 40 nM
[3]
  IC50: 58000 nM

## O=C(Nc1ccccc1)[C@H]1CC[C@H](C(=O)/C(=N/O)Nc2ccc(F)c(Br)c2)CC1
[1]
  IC50: 197 nM
[2]
  IC50: 150 nM
[3]
  IC50: > 100000 nM

## O/N=C(/CC1CCCCC1)Nc1ccc(F)c(Br)c1
[1]
  IC50: 578 nM
[2]
  IC50: 497 nM
[3]
  IC50: > 100000 nM

## O=C(/C(=N/O)Nc1ccc(F)c(Br)c1)c1ccco1
[1]
  IC50: 1680 nM
[2]
  IC50: 467 nM
[3]
  IC50: > 100000 nM

## O=C(/C(=N/O)Nc1ccc(F)c(Br)c1)C1CCN(c2ccccc2)CC1
[1]
  IC50: 1020 nM
[2]
  IC50: 149 nM
[3]
  IC50: > 100000 nM

## O=C(/C(=N/O)Nc1ccc(F)c(Br)c1)[C@H]1CC[C@H](NS(=O)(=O)Nc2ccccc2)CC1
[1]
  IC50: 291 nM
[2]
  IC50: 102 nM
[3]
  IC50: > 100000 nM

## O=C(/C(=N/O)Nc1ccc(F)c(Br)c1)C1CCN(S(=O)(=O)Nc2ccccc2)CC1
[1]
  IC50: 150 nM
[2]
  IC50: 98 nM
[3]
  IC50: 65700 nM
